# Measured values taken from patent US20250000786A1, “SENOTHERAPY COMPOSITION CONTAINING CAMELLIA SINENSIS EXTRACT” (AMOREPACIFIC CORPORATION, priority 2023, published 2025).
# Key:
# [1] = test system: senescent human fibroblasts; assay: Cell death by CCK-8 in senescence-induced fibroblasts; assay type: cell-based; settings: 72 hours
# Experimental: Human fibroblasts were cultured in a 6-well plate culture medium. Senescent cells were prepared by inducing senescence by culturing the fibroblasts in DMEM (containing 10% FBS) medium containing doxorubicin (100 ng/ml) and insulin-like growth factor 1 (IGF-1) (100 ng/ml) for 4 days. Then, the same medium was treated with a positive control material (ABT737, 1-10 uM) and the tea tree root extract (50-150 ppm) and cultured for 72 hours. The ABT737 is a Bcl-2 inhibitor and a representative senolytic. Young cells were treated with experimental materials in DMEM medium without inducing senescence and cultured for 72 hours. In order to confirm the senolytic efficacy of the treatment with the tea tree root extract, the medium was replaced with a medium diluted 1/100 with Cell counting kit-8 (CCK-8, dojindo), cultured for 1 hour, and then the absorbance was measured at 540 nm. Human fibroblasts were cultured in a 6-well plate culture medium. […] In order to confirm the senolytic efficacy of the material treated with the tea tree root extract, the medium was replaced with a medium diluted 1/100 with Cell counting kit-8 (CCK-8, dojindo), cultured for 1 hour, and then the absorbance was measured at 540 nm.
# young human fibroblasts = assay: Cell death by CCK-8 in young fibroblasts; assay type: cell-based; settings: concentration of 50 ppm or higher, 72 hours
# Experimental: Human fibroblasts were cultured in a 6-well plate culture medium. Senescent cells were prepared by inducing senescence by culturing the fibroblasts in DMEM (containing 10% FBS) medium containing doxorubicin (100 ng/ml) and insulin-like growth factor 1 (IGF-1) (100 ng/ml) for 4 days. Then, the same medium was treated with a positive control material (ABT737, 1-10 uM) and the tea tree root extract (50-150 ppm) and cultured for 72 hours. The ABT737 is a Bcl-2 inhibitor and a representative senolytic. Young cells were treated with experimental materials in DMEM medium without inducing senescence and cultured for 72 hours.
# In order to confirm the senolytic efficacy of the treatment with the tea tree root extract, the medium was replaced with a medium diluted 1/100 with Cell counting kit-8 (CCK-8, dojindo), cultured for 1 hour, and then the absorbance was measured at 540 nm.
# Human fibroblasts were cultured in a 6-well plate culture medium. […]
# In order to confirm the senolytic efficacy of the material treated with the tea tree root extract, the medium was replaced with a medium diluted 1/100 with Cell counting kit-8 (CCK-8, dojindo), cultured for 1 hour, and then the absorbance was measured at 540 nm.
smiles,measurement,setting,value
"O=C(O[C@@H]1Cc2c(O)cc(O)cc2O[C@@H]1c1cc(O)c(O)c(O)c1)c1cc(O)c(O)c(O)c1 [EGCG, epigallocatechin gallate]",killing senescent cells in fibroblasts,[1],no effect
same,cytotoxicity on young cells,young human fibroblasts,showed cytotoxicity
